Experiments:
Histamine H1 receptor = Histamine H1 receptor (Homo sapiens, UniProt P35367)
Vasopressin V2 receptor = Vasopressin V2 receptor (Homo sapiens, UniProt P30518)
[1] = target: T1, Muscarinic acetylcholine receptor M2 (Homo sapiens, UniProt P08172); type: functional, cell-based
T1 sequence (P08172 whole entry): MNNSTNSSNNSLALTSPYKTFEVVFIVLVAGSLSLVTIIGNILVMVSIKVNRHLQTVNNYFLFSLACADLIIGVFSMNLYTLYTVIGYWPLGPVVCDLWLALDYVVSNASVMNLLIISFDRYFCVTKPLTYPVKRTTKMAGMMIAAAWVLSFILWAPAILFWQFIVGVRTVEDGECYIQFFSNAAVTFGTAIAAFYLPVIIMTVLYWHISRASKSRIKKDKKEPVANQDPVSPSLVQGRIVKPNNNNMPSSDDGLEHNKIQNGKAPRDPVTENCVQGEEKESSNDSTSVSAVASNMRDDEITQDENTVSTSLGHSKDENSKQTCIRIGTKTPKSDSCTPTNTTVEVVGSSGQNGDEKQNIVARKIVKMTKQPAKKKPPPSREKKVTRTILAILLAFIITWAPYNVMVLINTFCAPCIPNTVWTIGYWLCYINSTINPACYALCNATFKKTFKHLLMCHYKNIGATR

[2] = target: T2, Cholecystokinin receptor type A (Homo sapiens, UniProt P32238)
T2 sequence (P32238 whole entry): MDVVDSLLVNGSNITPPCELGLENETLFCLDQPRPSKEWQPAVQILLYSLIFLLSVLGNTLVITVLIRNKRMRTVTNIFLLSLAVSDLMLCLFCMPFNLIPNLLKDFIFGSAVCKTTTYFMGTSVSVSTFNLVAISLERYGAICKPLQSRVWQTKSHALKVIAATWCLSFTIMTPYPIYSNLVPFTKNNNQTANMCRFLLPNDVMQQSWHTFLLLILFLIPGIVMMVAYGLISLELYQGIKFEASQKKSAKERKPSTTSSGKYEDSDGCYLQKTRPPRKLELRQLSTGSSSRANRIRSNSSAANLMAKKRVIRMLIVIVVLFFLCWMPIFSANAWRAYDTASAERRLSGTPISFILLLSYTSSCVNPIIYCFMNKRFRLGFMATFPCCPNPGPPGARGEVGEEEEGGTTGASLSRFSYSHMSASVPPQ

Thromboxane A2 receptor = target: T3, Thromboxane A2 receptor (Homo sapiens, UniProt P21731)
T3 sequence (P21731 whole entry): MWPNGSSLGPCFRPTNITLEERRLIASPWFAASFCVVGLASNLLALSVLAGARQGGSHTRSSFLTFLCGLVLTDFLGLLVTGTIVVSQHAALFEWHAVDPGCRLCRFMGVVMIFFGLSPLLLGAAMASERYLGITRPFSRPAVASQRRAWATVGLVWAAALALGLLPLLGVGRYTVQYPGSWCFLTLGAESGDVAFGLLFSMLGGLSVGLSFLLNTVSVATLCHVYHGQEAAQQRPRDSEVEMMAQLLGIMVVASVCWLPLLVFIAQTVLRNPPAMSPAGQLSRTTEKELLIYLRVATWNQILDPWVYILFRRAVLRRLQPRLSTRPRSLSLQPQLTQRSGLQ

[3] = target: Gamma-aminobutyric acid receptor subunit alpha-1 (Rattus norvegicus, UniProt P62813); type: functional
[4] = target: Kappa-type opioid receptor (Homo sapiens, UniProt P41145)
[5] = target: T4, Amine oxidase [flavin-containing] A (Homo sapiens, UniProt P21397); type: functional
T4 sequence (P21397 whole entry): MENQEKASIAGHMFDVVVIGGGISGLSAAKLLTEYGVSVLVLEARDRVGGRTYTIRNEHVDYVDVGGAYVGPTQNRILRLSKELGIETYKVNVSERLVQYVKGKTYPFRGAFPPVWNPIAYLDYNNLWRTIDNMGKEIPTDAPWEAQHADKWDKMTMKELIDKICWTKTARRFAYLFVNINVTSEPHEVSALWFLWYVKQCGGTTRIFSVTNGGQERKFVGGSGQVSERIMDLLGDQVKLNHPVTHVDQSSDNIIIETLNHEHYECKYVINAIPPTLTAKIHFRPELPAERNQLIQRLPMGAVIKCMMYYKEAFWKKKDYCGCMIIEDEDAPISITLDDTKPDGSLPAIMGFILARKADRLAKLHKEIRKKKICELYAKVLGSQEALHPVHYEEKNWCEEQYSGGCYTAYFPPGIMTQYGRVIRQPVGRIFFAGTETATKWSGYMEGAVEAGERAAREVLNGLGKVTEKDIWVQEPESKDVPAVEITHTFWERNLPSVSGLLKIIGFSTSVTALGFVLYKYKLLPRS

[6] = target: T5, Alpha-1A adrenergic receptor (Homo sapiens, UniProt P35348); type: functional, cell-based
T5 sequence (P35348 whole entry): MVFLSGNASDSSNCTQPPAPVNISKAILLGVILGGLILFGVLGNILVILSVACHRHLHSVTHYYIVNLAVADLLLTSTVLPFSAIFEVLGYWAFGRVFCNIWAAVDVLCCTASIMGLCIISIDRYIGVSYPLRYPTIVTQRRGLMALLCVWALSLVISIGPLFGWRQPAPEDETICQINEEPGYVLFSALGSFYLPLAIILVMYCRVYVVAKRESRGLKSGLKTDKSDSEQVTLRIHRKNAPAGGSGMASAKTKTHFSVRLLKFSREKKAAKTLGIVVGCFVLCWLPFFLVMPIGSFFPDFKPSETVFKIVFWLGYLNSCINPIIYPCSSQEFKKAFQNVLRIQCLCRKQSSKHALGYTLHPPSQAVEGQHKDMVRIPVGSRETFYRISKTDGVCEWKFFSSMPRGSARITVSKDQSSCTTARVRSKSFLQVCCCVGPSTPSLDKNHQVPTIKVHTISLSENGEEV
Also: assay procedure not described here.

Chain of Gamma-aminobutyric acid receptor subunit alpha-1 (P62813 whole entry): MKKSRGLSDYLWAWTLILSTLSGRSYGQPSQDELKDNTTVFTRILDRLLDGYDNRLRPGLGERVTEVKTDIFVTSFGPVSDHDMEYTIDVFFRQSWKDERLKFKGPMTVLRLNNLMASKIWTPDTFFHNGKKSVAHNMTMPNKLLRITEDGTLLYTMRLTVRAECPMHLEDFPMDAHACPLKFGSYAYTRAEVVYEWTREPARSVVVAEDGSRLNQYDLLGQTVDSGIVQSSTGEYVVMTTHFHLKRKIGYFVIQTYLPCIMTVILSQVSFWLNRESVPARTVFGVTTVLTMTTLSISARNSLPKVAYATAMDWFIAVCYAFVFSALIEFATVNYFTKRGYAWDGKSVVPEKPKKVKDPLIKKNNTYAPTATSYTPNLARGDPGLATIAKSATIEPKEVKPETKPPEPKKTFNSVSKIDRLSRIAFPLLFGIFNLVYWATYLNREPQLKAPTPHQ
Chain of Histamine H1 receptor (P35367 whole entry): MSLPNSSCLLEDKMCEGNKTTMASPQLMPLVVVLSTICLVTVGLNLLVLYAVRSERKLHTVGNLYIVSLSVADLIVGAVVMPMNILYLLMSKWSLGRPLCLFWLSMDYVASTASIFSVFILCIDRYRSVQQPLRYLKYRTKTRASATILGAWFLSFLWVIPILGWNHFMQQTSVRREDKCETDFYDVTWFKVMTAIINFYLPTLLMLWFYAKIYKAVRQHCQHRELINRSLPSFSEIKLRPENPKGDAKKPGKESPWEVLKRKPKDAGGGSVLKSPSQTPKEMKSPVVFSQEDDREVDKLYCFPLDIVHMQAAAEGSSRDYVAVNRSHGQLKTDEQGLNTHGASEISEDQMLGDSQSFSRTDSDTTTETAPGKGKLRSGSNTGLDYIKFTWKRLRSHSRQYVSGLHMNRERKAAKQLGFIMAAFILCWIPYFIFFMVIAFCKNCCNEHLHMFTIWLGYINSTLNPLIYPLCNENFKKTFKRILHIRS
Chain of Vasopressin V2 receptor (P30518 whole entry): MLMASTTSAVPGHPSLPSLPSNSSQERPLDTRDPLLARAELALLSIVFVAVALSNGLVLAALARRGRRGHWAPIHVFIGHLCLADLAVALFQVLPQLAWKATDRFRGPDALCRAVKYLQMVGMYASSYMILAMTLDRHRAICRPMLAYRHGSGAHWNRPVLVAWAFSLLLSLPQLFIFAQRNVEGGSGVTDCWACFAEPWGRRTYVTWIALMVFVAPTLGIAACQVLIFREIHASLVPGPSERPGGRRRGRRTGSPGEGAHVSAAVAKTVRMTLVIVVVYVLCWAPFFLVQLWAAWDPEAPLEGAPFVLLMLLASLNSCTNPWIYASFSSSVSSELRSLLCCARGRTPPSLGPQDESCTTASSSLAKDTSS
Chain of Kappa-type opioid receptor (P41145 whole entry): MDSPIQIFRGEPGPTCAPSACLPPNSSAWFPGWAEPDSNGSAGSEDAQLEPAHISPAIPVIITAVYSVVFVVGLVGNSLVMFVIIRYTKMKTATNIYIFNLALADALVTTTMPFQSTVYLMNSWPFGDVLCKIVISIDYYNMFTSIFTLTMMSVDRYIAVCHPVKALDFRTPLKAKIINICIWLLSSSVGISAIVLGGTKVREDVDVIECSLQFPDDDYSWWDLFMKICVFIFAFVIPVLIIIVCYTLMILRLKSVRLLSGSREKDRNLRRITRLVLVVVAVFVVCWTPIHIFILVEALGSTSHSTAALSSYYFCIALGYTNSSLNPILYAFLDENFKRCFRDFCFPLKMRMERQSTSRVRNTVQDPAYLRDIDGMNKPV

Row | Compound | AC50 (Histamine H1 receptor) | AC50 (Vasopressin V2 receptor) | AC50 [1] | AC50 [2] | AC50 (Thromboxane A2 receptor) | AC50 [3] | AC50 [4] | AC50 [5] | AC50 [6]
1 | C=CC(N)CCC(=O)O (stereo not drawn) [VIGABATRIN] | > 10 µM | > 10 µM | > 10 µM | > 10 µM | > 10 µM | > 10 µM | > 10 µM | > 10 µM | > 30 µM
2 | Cc1ccc(=O)n(-c2ccccc2)c1 [PIRFENIDONE] | > 30 µM | > 30 µM | > 30 µM | > 30 µM | > 30 µM | > 30 µM | > 30 µM | > 30 µM | > 30 µM
3 | CCCCCCOC(=O)CCC(=O)CN [HEXAMINOLEVULINATE] | > 30 µM | > 30 µM | > 30 µM | > 30 µM | > 30 µM | > 30 µM | > 30 µM | > 30 µM | > 30 µM
4 | O=C(O)c1ccccc1Nc1cccc(C(F)(F)F)c1 [FLUFENAMIC ACID] | 0.082 µM | > 30 µM | > 10 µM | > 30 µM | > 30 µM | > 10 µM | > 30 µM | > 10 µM | > 30 µM
5 | CCCOC(C(=O)OC1CCN(C)CC1)(c1ccccc1)c1ccccc1 [PROPIVERINE] | 18 µM | > 30 µM | 3.6 µM | > 30 µM | > 30 µM | > 30 µM | 11 µM | > 30 µM | > 30 µM
6 | Clc1ccc2c(c1)C(c1ccccc1)=NCc1nncn1-2 [ESTAZOLAM] | > 10 µM | > 30 µM | > 10 µM | > 30 µM | > 30 µM | 0.0336 µM | 20.1 µM | > 10 µM | > 30 µM
7 | N[C@H](Cc1cc(I)c(Oc2cc(I)c(O)c(I)c2)c(I)c1)C(=O)O [DEXTROTHYROXINE] | > 10 µM | > 30 µM | > 10 µM | > 30 µM | 21.9 µM | > 10 µM | > 10 µM | > 10 µM | > 30 µM
8 | Nc1nc(F)nc2c1ncn2[C@@H]1O[C@H](COP(=O)(O)O)[C@@H](O)[C@@H]1O [FLUDARABINE PHOSPHATE] | > 30 µM | > 30 µM | > 30 µM | > 30 µM | > 30 µM | > 30 µM | > 30 µM | > 30 µM | > 30 µM
9 | O=C(CCCN1CCC(n2c(O)nc3ccccc32)CC1)c1ccc(F)cc1 [BENPERIDOL] | 0.73 µM | > 30 µM | 2.64 µM | > 30 µM | > 30 µM | > 30 µM | 1.15 µM |  | 0.0706 µM
10 | Cc1cc2nc3c(=O)[nH]c(=O)nc-3n(C[C@H](O)[C@H](O)[C@H](O)COP(=O)(O)O)c2cc1C [RIBOFLAVIN 5'-PHOSPHATE] | > 30 µM | > 30 µM |  | > 30 µM | > 30 µM | > 30 µM | > 30 µM | > 30 µM | 5.1 µM

— ChEMBL document CHEMBL5291721, “A preclinical secondary pharmacology resource illuminates target-adverse drug reaction associations of marketed drugs” (Nat Commun, 2023)
